Activity calls are given as the source filed them. The calls are words filed in the database; no cut-off is given here.
How the values were obtained:
[1] = tested on: Mus musculus; assay: Analgetic activity against CF-1 mouse assessed as increase in reaction time at 40 mg/kg, sc by heat stimulus induced tail flick response assay; assay type: functional, organism-based; parameters: dose 40 mg/kg
[2] = tested on: Mus musculus; assay: Analgetic activity against CF-1 mouse assessed as increase in reaction time at 320 mg/kg, sc by heat stimulus induced tail flick response assay; assay type: functional, organism-based; parameters: dose 320 mg/kg
[3] = tested on: Mus musculus; assay: Analgetic activity in po dosed CF1S mouse assessed as writhing by phenylquinone writhing test; assay type: functional; details: Mus musculus, CF1S, po; read-out: ED50
[4] = species on record: Mus musculus; assay: Analgetic activity in nalorphine challenged mouse assessed as frequency pretreated for 2 day by mouse jumping test; assay type: functional, organism-based
[5] = tested on: Mus musculus; assay: Analgetic activity against CF-1 mouse assessed as increase in reaction time at 20 mg/kg, sc by heat stimulus induced tail flick response assay; assay type: functional, organism-based; parameters: dose 20 mg/kg
[6] = tested on: Mus musculus; assay: Analgetic activity against CF-1 mouse assessed as increase in reaction time at 160 mg/kg, sc by heat stimulus induced tail flick response assay; assay type: functional, organism-based; parameters: dose 160 mg/kg
[7] = tested on: Mus musculus; assay: Analgetic activity in sc dosed CF1S mouse assessed as writhing by phenylquinone writhing test; assay type: functional; details: Mus musculus, CF1S, sc; read-out: ED50
[8] = tested on: Mus musculus; assay: Analgetic activity against CF-1 mouse assessed as increase in reaction time at 160 mg/kg, po by heat stimulus induced tail flick response assay; assay type: functional, organism-based; parameters: dose 160 mg/kg
[9] = tested on: Mus musculus; assay: Analgetic activity against CF-1 mouse assessed as increase in reaction time at 80 mg/kg, po by heat stimulus induced tail flick response assay; assay type: functional, organism-based; parameters: dose 80 mg/kg
[10] = species on record: Mus musculus; assay: Analgetic activity in naloxone challenged mouse assessed as frequency pretreated for 2 day by mouse jumping test; assay type: functional, organism-based
[11] = tested on: Mus musculus; assay: Analgetic activity against CF-1 mouse assessed as increase in reaction time at 320 mg/kg, po by heat stimulus induced tail flick response assay; assay type: functional, organism-based; parameters: dose 320 mg/kg
[12] = tested on: Mus musculus; assay: Analgetic activity against CF-1 mouse assessed as increase in reaction time at 80 mg/kg, sc by heat stimulus induced tail flick response assay; assay type: functional, organism-based; parameters: dose 80 mg/kg
[13] = tested on: Mus musculus; assay: Analgetic activity against CF-1 mouse assessed as increase in reaction time at 40 mg/kg, po by heat stimulus induced tail flick response assay; assay type: functional, organism-based; parameters: dose 40 mg/kg
[14] = tested on: Mus musculus; assay: Analgetic activity against CF-1 mouse assessed as increase in reaction time at 5 mg/kg, sc by heat stimulus induced tail flick response assay; assay type: functional, organism-based; parameters: dose 5 mg/kg
[15] = tested on: Mus musculus; assay: Analgetic activity against CF-1 mouse assessed as increase in reaction time at 10 mg/kg, po by heat stimulus induced tail flick response assay; assay type: functional, organism-based; parameters: dose 10 mg/kg

Compound: COc1ccc(CC2C=C(c3ccccc3)CCN2C)cc1OC (configuration not stated)
- Activity [1]: Active

Compound: CN1CCC2(c3ccccc3)CC1Cc1ccccc12 (stereo in doubt; 37)
- Activity [2]: inactive

Compound: CC1C2Cc3ccc(O)cc3C1(c1ccccc1)CCN2Cc1ccco1 (configuration not stated)
- Activity [2]: inactive

Compound: CC1C2Cc3ccc(OC(=O)c4ccccc4Cl)cc3C1(c1ccccc1)CCN2C (configuration not stated)
- ED50 [3]: 49 mg/kg
- Activity [4]: Active

Compound: CN1CCC2(c3ccccc3)CC1Cc1ccccc12 (stereo in doubt; 36)
- Activity [5]: Active
- Activity [4]: inactive

Compound: C/C(Cl)=C/CN1CCC2(c3ccccc3)c3cc(O)ccc3CC1C2C (racemic)
- Activity [6]: inactive
- ED50 [7]: > 100 mg/kg

Compound: Oc1ccc2c(c1)C1(c3ccccc3)CCN(CCCc3ccccc3)C(C2)C1 (racemic)
- Activity [8]: Active
- ED50 [3]: > 100 mg/kg

Compound: Oc1ccc2c(c1)C1(c3ccccc3)CCN(CCc3ccccc3)C(C2)C1 (configuration not stated)
- Activity [9]: Active
- Activity [10]: Active

Compound: CC1C2Cc3ccc(O)cc3C1(c1ccccc1)CCN2CCC(C#N)(c1ccccc1)c1ccccc1 (stereo in doubt; 189)
- Activity [11]: inactive
- Activity [4]: inactive

Compound: CC1C2Cc3ccc(O)cc3C1(c1ccccc1)CCN2CCC(=O)c1ccccc1 (configuration not stated)
- Activity [8]: Active

Compound: CN1CCC2(c3ccc(Cl)cc3)CC1Cc1ccccc12 (racemic)
- Activity [12]: Active
- Activity [8]: Active

Compound: CN1CCC2(c3ccccc3)CC1Cc1ccc(O)cc12 (stereo in doubt; 42)
- Activity [12]: inactive

Compound: CC1C2Cc3ccc(O)cc3C1(c1ccccc1)CCN2CC1CCC1 (stereo in doubt; 219)
- Activity [10]: inactive

Compound: Br.CN1CCC2(c3ccccc3)CC1Cc1ccc(F)cc12 (racemic)
- Activity [12]: inactive
- ED50 [3]: 33 mg/kg

Compound: CC1C2Cc3ccc(O)cc3C1(c1ccccc1)CCN2C (configuration not stated)
- Activity [13]: Active
- Activity [5]: Active

Compound: Oc1ccc2c(c1)C1(c3ccccc3)CCN(C/C=C/Cl)C(C2)C1 (racemic)
- ED50 [7]: > 100 mg/kg
- Activity [10]: inactive

Compound: CC1C2Cc3ccc(O)cc3C1(c1ccccc1)CCN2CC(c1ccccc1)c1ccccc1 (configuration not stated)
- Activity [8]: inactive

Compound: CC(=O)Oc1ccc2c(c1)C1(c3ccccc3)CCN(CC=C(C)C)C(C2)C1C (configuration not stated)
- Activity [2]: inactive

Compound: CC1C2Cc3ccc(O)cc3C1(c1ccccc1)CCN2C (racemic)
- Activity [14]: Active
- Activity [15]: Active

Compound: CN1CCC2(c3ccc(Cl)cc3)CC1Cc1ccc(O)cc12 (racemic)
- Activity [1]: Active

Compound: C[C@@H]1C2Cc3ccc(O)cc3C1(c1ccccc1)CCN2C (mixture of isomers)
- Activity [6]: Active

Compound: CC(C)CCN1CCC2(c3ccccc3)c3cc(O)ccc3CC1[C@H]2C (some centres not stated)
- Activity [8]: Active

Compound: CCCCCN1CCC2(c3ccccc3)c3cc(O)ccc3CC1C2C (racemic)
- Activity [14]: Active

Compound: c1ccc(C23CCNC(Cc4ccccc42)C3)cc1 (configuration not stated)
- Activity [6]: Active

Compound: CN1CCC2(c3ccccc3)CC1Cc1ccc(O)cc12 (racemic)
- Activity [5]: Active

Compound: COc1ccc(CC2C=C(c3ccc(Cl)cc3)CCN2C)cc1 (configuration not stated)
- Activity [13]: Active
- Activity [10]: inactive

Compound: C[C@@H]1C2Cc3ccc(O)cc3C1(c1ccccc1)CCN2CCC(C)(C)O (some centres not stated)
- Activity [2]: inactive
- ED50 [7]: 78 mg/kg

Compound: CCC1C2Cc3ccc(O)cc3C1(c1ccccc1)CCN2C (racemic)
- Activity [5]: Active

Compound: CCOC(=O)C(C)N1CCC2(c3ccccc3)c3cc(O)ccc3CC1C2C (configuration not stated)
- Activity [2]: inactive
- ED50 [7]: > 100 mg/kg

Compound: COc1ccc2c(c1)C1(c3ccccc3)CCN(CC=C(C)C)C(C2)C1C (configuration not stated)
- Activity [2]: inactive
- ED50 [7]: > 100 mg/kg

Compound: c1ccc(C23CCNC(Cc4ccccc42)C3)cc1 (racemic)
- Activity [12]: Active

Compound: CC(=O)Oc1ccc2c(c1)C1(c3ccccc3)CCN(C)C(C2)C1 (racemic)
- Activity [12]: inactive
- ED50 [7]: 9.4 mg/kg
- Activity [10]: inactive

Compound: c1ccc(CCN2CCC3(c4ccccc4)CC2Cc2ccccc23)cc1 (racemic)
- Activity [8]: Active

Compound: CN1CCC(c2ccccc2)=CC1Cc1ccc(O)cc1 (configuration not stated)
- Activity [5]: Active
- ED50 [7]: 1.5 mg/kg
- ED50 [3]: 27 mg/kg
- Activity [10]: inactive

Compound: CC1C2Cc3ccc(O)cc3C1(c1ccccc1)CCN2CCc1ccc([N+](=O)[O-])cc1.Cl (configuration not stated)
- Activity [2]: inactive
- Activity [11]: inactive
- ED50 [3]: > 100 mg/kg

Compound: CN1CCC(c2ccccc2)=CC1Cc1ccc(F)cc1 (configuration not stated)
- Activity [12]: Active

Compound: C=C(Br)CN1CCC2(c3ccccc3)c3cc(O)ccc3CC1C2C.Cl (configuration not stated)
- Activity [1]: inactive
- ED50 [7]: > 100 mg/kg
- Activity [10]: inactive

Compound: CCOC(=O)CCN1CCC2(c3ccccc3)CC1Cc1ccc(O)cc12 (racemic)
- Activity [2]: inactive
- ED50 [7]: 78 mg/kg
- ED50 [3]: > 100 mg/kg

Compound: C/C(Cl)=C\CN1CCC2(c3ccccc3)c3cc(O)ccc3CC1C2C (configuration not stated)
- Activity [12]: inactive
- ED50 [7]: > 100 mg/kg

Compound: CC(C)=CCN1CCC2(c3ccccc3)c3cc(O)ccc3CC1C2C (stereo in doubt; 207)
- Activity [10]: inactive

Compound: COc1cc(CC2C=C(c3ccccc3)CCN2C)cc(OC)c1OC (configuration not stated)
- Activity [9]: Active

Compound: CC1C2Cc3ccc(O)cc3C1(c1ccccc1)CCN2CCO (racemic)
- Activity [6]: inactive
- Activity [11]: inactive

Compound: CN(C)C(=S)Oc1ccc2c(c1)C1(c3ccccc3)CCN(C)C(C2)C1 (racemic)
- Activity [1]: inactive
- Activity [11]: inactive

Compound: CC1C2Cc3ccc(O)cc3C1(c1ccccc1)CCN2CCc1ccccc1 (racemic)
- Activity [13]: Active
- Activity [5]: Active

Compound: CCOC(=O)CNC(=O)Oc1ccc2c(c1)C1(c3ccccc3)CCN(C)C(C2)[C@H]1C (some centres not stated)
- Activity [1]: Active
- Activity [9]: Active

Compound: Oc1ccc2c(c1)C1(c3ccccc3)CCNC(C2)C1 (racemic)
- Activity [2]: inactive
- Activity [8]: inactive

Compound: Br.CC1=C(c2ccccc2)CCN(C)C1Cc1ccccc1 (configuration not stated)
- Activity [6]: Active
- ED50 [7]: 45 mg/kg

Compound: O=[N+]([O-])c1ccc(CCN2CCC3(c4ccccc4)CC2Cc2ccc(O)cc23)cc1 (racemic)
- Activity [2]: inactive

Compound: Br.CN1CCC(c2ccccc2)=CC1Cc1ccccc1 (configuration not stated)
- Activity [1]: Active
- ED50 [7]: 6.6 mg/kg
- ED50 [3]: 37 mg/kg
- Activity [10]: inactive

Compound: C#CCN1CCC2(c3ccccc3)c3cc(O)ccc3CC1C2C (configuration not stated)
- Activity [10]: inactive

Compound: Cc1ccc(S(=O)(=O)Oc2ccc3c(c2)C2(c4ccccc4)CCN(C)C(C3)C2)cc1 (racemic)
- Activity [12]: inactive

Compound: CCCN1CCC2(c3ccccc3)c3cc(O)ccc3CC1C2C (stereo in doubt; 173)
- Activity [2]: inactive

Compound: CC1=C(c2ccccc2)CCN(C)C1Cc1ccc(O)cc1 (configuration not stated)
- Activity [6]: Active
- ED50 [7]: 5 mg/kg
- Activity [10]: inactive

Compound: CN1CCC2(c3ccccc3)CC1Cc1cc(O)c(O)cc12 (racemic)
- Activity [2]: inactive

Compound: CN1CCC2(c3ccccc3)CC1Cc1cc(O)c(O)c(O)c12 (racemic)
- Activity [8]: inactive

Compound: CC1C2Cc3ccc(O)cc3C1(c1ccccc1)CCN2CCO (configuration not stated)
- Activity [12]: inactive

Compound: Cl.Oc1ccc2c(c1)C1(c3ccc(Cl)cc3)CCN(CCc3ccccc3)C(C2)C1 (racemic)
- Activity [9]: inactive
- ED50 [7]: > 100 mg/kg

Compound: c1ccc(CCN2CCC3(c4ccccc4)CC2Cc2ccccc23)cc1 (configuration not stated)
- Activity [6]: inactive

Compound: CN(C)CCCN1CCC2(c3ccccc3)CC1Cc1ccc(O)cc12 (racemic)
- Activity [2]: inactive

Compound: COc1ccc2c(c1)C1(c3ccccc3)CCNC(C2)C1.Cl (configuration not stated)
- Activity [2]: inactive
- ED50 [7]: 100 mg/kg

Compound: CC1C2Cc3ccc(O)cc3C1(c1ccccc1)CCN2 (stereo in doubt; 110)
- Activity [2]: inactive
- Activity [11]: inactive

Compound: OCCN1CCC2(c3ccccc3)CC1Cc1ccc(O)cc12 (racemic)
- Activity [2]: inactive
- ED50 [7]: > 100 mg/kg

Compound: Oc1ccc2c(c1)C1(c3ccccc3)CCN(CC3CCC3)C(C2)C1 (stereo in doubt; 145)
- Activity [10]: inactive

Compound: CC1C2Cc3ccc(OC(=O)c4ccccc4F)cc3C1(c1ccccc1)CCN2C (configuration not stated)
- ED50 [7]: 0.5 mg/kg
- Activity [4]: Active

Compound: COc1ccc(CC2C=C(c3ccccc3)CCN2C)cc1 (configuration not stated)
- Activity [12]: Active
- Activity [10]: inactive

Compound: Br.CCN1CCC2(c3ccccc3)CC1Cc1ccccc12 (racemic)
- Activity [2]: inactive
- ED50 [7]: 16 mg/kg

Compound: CC1C2Cc3ccccc3C1(c1ccccc1)CCN2C (racemic)
- Activity [1]: Active
- Activity [9]: Active

Compound: Oc1ccc2c(c1)C1(c3ccc(Cl)cc3)CCNC(C2)C1 (racemic)
- Activity [2]: inactive

Compound: Oc1ccc2c(c1)C1(c3ccccc3)CCN(CCc3ccccc3)C(C2)C1 (racemic)
- Activity [1]: Active

Compound: CN1CCC2(c3ccccc3)CC1Cc1ccccc12 (racemic)
- Activity [13]: Active
- Activity [5]: Active

Compound: CCCCCN1CCC2(c3ccccc3)c3cc(OC(C)=O)ccc3CC1C2C (configuration not stated)
- Activity [13]: Active
- Activity [14]: Active

Compound: CCOC(=O)CN1CCC2(c3ccccc3)c3cc(O)ccc3CC1C2C (configuration not stated)
- Activity [2]: inactive

Compound: CCC1=C(c2ccccc2)CCN(C)C1Cc1ccc(O)cc1 (configuration not stated)
- Activity [12]: Active
- Activity [10]: inactive

— ChEMBL document CHEMBL3244027, “Syntheses, analgetic activity, and physical dependence capacity of 5-phenyl-6,7-benzomorphan derivatives” (J Med Chem, 1979)
